Several values for one entry are separate records, joined by “and”; a condition that tells them apart may be missing. Identical values can stand only once. Entries after “also recorded” stand apart in the source; their conditions may differ. Counter-ions that a name gives are not always drawn. Like-named read-outs stand apart in the source and are kept apart here.
Key:
[1] = tested on: 6-OHDA treated zebrafish larvae; test: Rescue of Tyrosine hydroxylase (TH)-positive dopaminergic neurons in 6-OHDA zebrafish larvae; assay type: in vivo
Protocol: The 7 candidates also were tested in terms of rescue of dopaminergic neurons positive for Tyrosine hydroxylase (Th) in the substancia nigra pars compacta of the test animals. […] Results were normalized for healthy control values (healthy control=100% of neurons). As a control, zebrafish were treated with only the vehicle, ascorbic acid. ‘6-OHDA_ represents results in zebrafish receiving no treatment.
FIGS. 6E-6G show representative Z-projections of confocal stacks of whole-mount anti-TH immunohistochemistry in 6 days post-fertilization (dpf) of zebrafish larvae (age of the fish) control (FIG. 6E), 6-OHDA (FIG. 6F), and tapentadol treated-larvae (FIG. 6G).

[2] = tested on: 6-OHDA treated zebrafish larvae; test: Co-administration with L-Dopa, total distance 6-OHDA larvae move; assay type: in vivo; details: hydrochloride; for Effect of co-administration with L-Dopa on locomotor recovery: total distance, L-Dopa 250 or 125 μM
[3] = tested on: 6-OHDA mouse model; test: Cylinder test, 6-OHDA mice (Example 5); assay type: in vivo
[4] = tested on: 6-OHDA mouse model; test: Abnormal involuntary movements, 6-OHDA mice (Example 5); assay type: in vivo; details: 28 days post injection; 30 and 90 minutes after treatment
Protocol: This condition results in a range of involuntary movements that can be evaluated by video tracking analyses. […] Evaluations were performed during two independent trials, 30 and 90 minutes after treatment administration. […] Nonetheless, forelimb and orofacial involuntary movements are extremely hard to detect, and reading errors occur, considering the size of the animals. Total abnormal involuntary movements are the sum of all 4 different involuntary movements evaluated and is the parameter often reported in the literature.
As FIGS. 17A-17F show, abnormal involuntary movements were evaluated using the cylinder test 28 days post injection. […] Values mean ě SEM (n=5-8).

[5] = tested on: healthy wild type mice; test: Toxicity assay, open field test in healthy wild type mice (Example 6); assay type: in vivo, mouse; details: 1 h after i.p.; tapentadol C1 8.3 mg/kg in combination with L-Dopa 18 mg/kg
Source text: Necropsy was done after cervical dislocation. […] Saline was given to the control group.

[6] = tested on: 6-OHDA mouse model; test: Abnormal involuntary movements (AIMs), 6-OHDA mice, ON/OFF L-Dopa study (Example 7)
Protocol: The unilateral striatal 6-OHDA mice model was used in this study. Specifically, 12 week old CD-1 male mice received an injection of 6-OHDA neurotoxin at the following coordinates: AP +0.9 mm, ML +2.0 mm, DV −3.2 mm, as in the Example outlined above. Animals were injected with 10 ? g of 6-OHDA or ascorbic acid (vehicle control) to induce the disease. Disease was induced for 7 days and treatment then was initiated at this time point.
The following parameters were evaluated: hyperkinetic and/or dystonic movements of the contralateral forelimb on the sagittal or frontal plane (forelimb involuntary movements; FIG. 29A), twisted posture of the neck and upper body towards the side contralateral to the lesion (upper body involuntary movements; FIG. 29B), twitching of orofacial muscles, empty jaw movements and contralateral tongue protrusion (orofacial involuntary movements; FIG. 29C), circular locomotion with contralateral side bias (circular involuntary movements; FIG. 29D), total involuntary movements (FIG. 29E), and total involuntary movement along the different timepoints (FIG. 29F). […] Total abnormal involuntary movements (FIGS. […]) were the sum of all 4 different involuntary movements evaluated.
The same parameters were analyzed as for 20 days post injection (dpi).

[7] = storage below 25 éC; cited from earlier work
[8] = tested on: mouse; details: cited from earlier work
[9] = tested on: rabbit; details: oral administration; cited from earlier work
[10] = cited from earlier work
[11] = cited from earlier work; remark: listed apart in the source
[12] = cited from earlier work; remark: listed apart in the source

CC[C@@H](c1cccc(O)c1)[C@@H](C)CN(C)C [tapentadol, tapentadol hydrochloride]
Neurorescue ([1]; TH+ neurons at optimal dose, p): Confirmed p < 0.055 | Neuroprotective effect / recovery of TH+ neurons ([1]; at the optimal concentration of each molecule, hydrochloride): confirmed; also recorded: recovery was observed | Tapentadol w L-Dopa: effectiveness with L-Dopa 250 relative to 125 ([2]; co-administration with L-Dopa 250 vs 125, listed as Tapentadol HCl): less and equally | Effect of co-administration with L-Dopa on locomotor recovery ([2]; listed as Tapentadol): not affected | Effect of co-administration with L-Dopa on locomotor recovery ([2]; listed as tapentadol hydrochloride): the same or improved | Cylinder test: recovery over the parameters analyzed ([3]; concentration 1 (2.8 mg/kg/day), hydrochloride, 2.8 mg/kg/day): showed a recovery; also recorded: strongest recovery | Cylinder test: recovery over the parameters analyzed ([3]; concentration 2 (0.9 mg/kg/day)): did not show significant recovery | Induction of abnormal involuntary movements [4]: None of the treatments, tapentadol or stavudine of the combination, induced involuntary movements | Open field behavior (velocity, distance, time resting/moving) [5]: slightly different behavior in three out of the four parameters analyzed | Induction of abnormal involuntary movements ([6]; L-Dopa treated groups vs tapentadol hydrochloride alone): did not; also recorded: does not induce AIMs | Effect on L-Dopa induced AIMs / dyskinesia ([6]; concomitant administration with L-Dopa, hydrochloride): not reverted; also recorded: did not revert L-Dopa induced AIMs; also recorded: did not increase dyskinesia | Re-test period [7]: 30 months | LD50 ([8]; intravenous administration, mice): 47 mg/kg | LD50 ([8]; oral administration, mouse): 300 mg/kg | LD50 ([8]; oral, mice): 300 to 350 mg/kg | LD50 [9]: 3,200 mg/kg | Dose with exaggerated pharmacological effects ([10]; 52-week dog study, oral dosing): 30 mg/kg | Dose groups with QT prolongation ([10]; dogs, hydrochloride): 80 mg/kg and 120 mg/kg | Absorption after oral administration ([11]; dog, mice, and rats): completely absorbed | Bioavailability ([11]; dogs and rats): low | Placenta-blood barrier crossing ([11]; in vivo): crosses the placenta-blood barrier, but to a lesser extent | Plasma protein binding ([12]; all species tested including humans): 15-20% | Plasma protein binding ([12]; plasma): approximately 20%
